From PubChem BioAssay (NCI)
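Here, GI50 denotes the concentration required for 50% inhibition of growth. At the TGI there is no net growth.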

What was measured:
Assay in all cases: inhibition of tumour cell growth, NCI panel, 384-well format
786-0 renal = test system: 786-0 renal
A498 renal = test system: A498 renal
A549 NSCLC = test system: A549 NSCLC
ACHN renal = test system: ACHN renal
BT-549 breast = test system: BT-549 breast
CAKI-1 renal = test system: CAKI-1 renal
CCRF-CEM leukemia = test system: CCRF-CEM leukemia
COLO 205 colon = test system: COLO 205 colon
DU-145 prostate = test system: DU-145 prostate
EKVX NSCLC = test system: EKVX NSCLC
HCC-2998 colon = test system: HCC-2998 colon
HCT-116 colon = test system: HCT-116 colon
HCT-15 colon = test system: HCT-15 colon
HL-60(TB) leukemia = test system: HL-60(TB) leukemia
HOP-62 NSCLC = test system: HOP-62 NSCLC
HOP-92 NSCLC = test system: HOP-92 NSCLC
HS 578T breast = test system: HS 578T breast
HT29 colon = test system: HT29 colon
IGROV1 ovarian = test system: IGROV1 ovarian
K-562 leukemia = test system: K-562 leukemia
KM12 colon = test system: KM12 colon
LOX IMVI melanoma = test system: LOX IMVI melanoma
M14 melanoma = test system: M14 melanoma
MALME-3M melanoma = test system: MALME-3M melanoma
MCF7 breast = test system: MCF7 breast
MDA-MB-231 breast = test system: MDA-MB-231 breast
MDA-MB-468 breast = test system: MDA-MB-468 breast
MOLT-4 leukemia = test system: MOLT-4 leukemia
NCI-H226 lung = test system: NCI-H226 lung
NCI-H23 lung = test system: NCI-H23 lung
NCI-H322M lung = test system: NCI-H322M lung
NCI-H460 NSCLC = test system: NCI-H460 NSCLC
NCI-H522 lung = test system: NCI-H522 lung
NCI/ADR-RES ovarian = test system: NCI/ADR-RES ovarian
OVCAR-4 ovarian = test system: OVCAR-4 ovarian
OVCAR-5 ovarian = test system: OVCAR-5 ovarian
PC-3 prostate = test system: PC-3 prostate
RXF 393 renal = test system: RXF 393 renal
SF-268 CNS = test system: SF-268 CNS
SF-295 CNS = test system: SF-295 CNS
SF-539 CNS = test system: SF-539 CNS
SK-MEL-2 melanoma = test system: SK-MEL-2 melanoma
SK-MEL-28 melanoma = test system: SK-MEL-28 melanoma
SK-MEL-5 melanoma = test system: SK-MEL-5 melanoma
SK-OV-3 ovarian = test system: SK-OV-3 ovarian
SN12C renal = test system: SN12C renal
SNB-19 CNS = test system: SNB-19 CNS
SNB-75 CNS = test system: SNB-75 CNS
SR leukemia = test system: SR leukemia
SW-620 colon = test system: SW-620 colon
T-47D breast = test system: T-47D breast
TK-10 renal = test system: TK-10 renal
U251 glioblastoma = test system: U251 glioblastoma
UACC-257 melanoma = test system: UACC-257 melanoma
UACC-62 melanoma = test system: UACC-62 melanoma
UO-31 renal = test system: UO-31 renal

In the case of Cc1cncc2cccc(S(=O)(=O)N3CCCNC[C@@H]3C)c12, the GI50 ([…]-0 renal) is reported as 13.6 µM, the TGI (786-0 renal) is reported as > 100 µM and the GI50 (A498 renal) is reported as > 100 µM. For the same compound, the TGI (A498 renal) was > 100 µM, the GI50 (A549 NSCLC) was 11.2 µM and the TGI (A549 NSCLC) was 49.4 µM. For the same compound, the GI50 (ACHN renal) was 25.9 µM, the TGI (ACHN renal) was > 100 µM and the GI50 (BT-549 breast) was 1.8 µM. It also gave a TGI (BT-549 breast) of 7.48 µM, a GI50 (CAKI-1 renal) of 7.51 µM and a TGI (CAKI-1 renal) of 24.7 µM. The GI50 (CCRF-CEM leukemia) was 1.25 µM, the TGI (CCRF-CEM leukemia) was 2.57 µM and the GI50 (COLO 205 colon) was 3.03 µM. For the same compound, the TGI (COLO 205 colon) was 11 µM, the GI50 (DU-145 prostate) was 5.94 µM and the TGI (DU-145 prostate) was > 100 µM. The GI50 (EKVX NSCLC) was 16.3 µM, the TGI (EKVX NSCLC) was > 100 µM and the GI50 (HCC-2998 colon) was 42.4 µM. For the same compound, the TGI (HCC-2998 colon) was > 100 µM, the GI50 (HCT-116 colon) was 7.52 µM and the TGI (HCT-116 colon) was 48 µM. For the same compound, the GI50 (HCT-15 colon) was 11.2 µM, the TGI (HCT-15 colon) was > 100 µM and the GI50 (HL-60(TB) leukemia) was 1.49 µM. For the same compound, the TGI (HL-60(TB) leukemia) was 3.09 µM, the GI50 (HOP-62 NSCLC) was 11.3 µM and the TGI (HOP-62 NSCLC) was 62.4 µM. The GI50 (HOP-92 NSCLC) was 10.3 µM, the TGI (HOP-92 NSCLC) was 36.1 µM and the GI50 (HS 578T breast) was 1.89 µM. The TGI (HS 578T breast) was 4.55 µM, the GI50 (HT29 colon) was 4.96 µM and the TGI (HT29 colon) was > 100 µM. The GI50 (IGROV1 ovarian) was 7.65 µM, the TGI (IGROV1 ovarian) was 58.1 µM and the GI50 (K-562 leukemia) was 0.537 µM. The TGI (K-562 leukemia) was > 100 µM, the GI50 (KM12 colon) was 16.4 µM and the TGI (KM12 colon) was 81.2 µM. For the same compound, the GI50 (LOX IMVI melanoma) was 12.1 µM, the TGI (LOX IMVI melanoma) was 31.8 µM and the GI50 (M14 melanoma) was > 100 µM. For the same compound, the TGI (M14 melanoma) was > 100 µM, the GI50 (MALME-3M melanoma) was > 100 µM and the TGI (MALME-3M melanoma) was > 100 µM. The GI50 (MCF7 breast) was 28 µM, the TGI (MCF7 breast) was > 100 µM and the GI50 (MDA-MB-231 breast) was 14.9 µM. The TGI (MDA-MB-231 breast) was 43.8 µM, the GI50 (MDA-MB-468 breast) was 1.02 µM and the TGI (MDA-MB-468 breast) was 2.28 µM. For the same compound, the GI50 (MOLT-4 leukemia) was 0.492 µM, the TGI (MOLT-4 leukemia) was 1.65 µM and the GI50 (NCI-H226 lung) was 13.2 µM. It also gave a TGI (NCI-H226 lung) of 68.2 µM, a GI50 (NCI-H23 lung) of 10.8 µM and a TGI (NCI-H23 lung) of 52 µM. The GI50 (NCI-H322M lung) was 87.7 µM, the TGI (NCI-H322M lung) was > 100 µM and the GI50 (NCI-H460 NSCLC) was 2.54 µM. For the same compound, the TGI (NCI-H460 NSCLC) was 67.8 µM, the GI50 (NCI-H522 lung) was 1.71 µM and the TGI (NCI-H522 lung) was 5.04 µM. For the same compound, the GI50 (NCI/ADR-RES ovarian) was 3.63 µM, the TGI (NCI/ADR-RES ovarian) was > 100 µM and the GI50 (OVCAR-4 ovarian) was > 100 µM. For the same compound, the TGI (OVCAR-4 ovarian) was > 100 µM, the GI50 (OVCAR-5 ovarian) was 25.5 µM and the TGI (OVCAR-5 ovarian) was > 100 µM. The GI50 (PC-3 prostate) was 8.81 µM, the TGI (PC-3 prostate) was > 100 µM and the GI50 (RXF 393 renal) was 5.06 µM. For the same compound, the TGI (RXF 393 renal) was 22.6 µM, the GI50 (SF-268 CNS) was 11.7 µM and the TGI (SF-268 CNS) was 87.3 µM. For the same compound, the GI50 (SF-295 CNS) was 4.35 µM, the TGI (SF-295 CNS) was > 100 µM and the GI50 (SF-539 CNS) was 4.32 µM. It also gave a TGI (SF-539 CNS) of 20.1 µM, a GI50 (SK-MEL-2 melanoma) of 7.56 µM and a TGI (SK-MEL-2 melanoma) of 42.4 µM. For the same compound, the GI50 (SK-MEL-28 melanoma) was > 100 µM, the TGI (SK-MEL-28 melanoma) was > 100 µM and the GI50 (SK-MEL-5 melanoma) was 5.64 µM. For the same compound, the TGI (SK-MEL-5 melanoma) was > 100 µM, the GI50 (SK-OV-3 ovarian) was 18.5 µM and the TGI (SK-OV-3 ovarian) was > 100 µM. The GI50 (SN12C renal) was 15.1 µM, the TGI (SN12C renal) was 61.1 µM and the GI50 (SNB-19 CNS) was 8.41 µM. For the same compound, the TGI (SNB-19 CNS) was > 100 µM, the GI50 (SNB-75 CNS) was 1.66 µM and the TGI (SNB-75 CNS) was 10 µM. The GI50 (SR leukemia) was 0.227 µM, the TGI (SR leukemia) was 0.389 µM and the GI50 (SW-620 colon) was 2.74 µM. For the same compound, the TGI (SW-620 colon) was 10.7 µM, the GI50 (T-47D breast) was > 100 µM and the TGI (T-47D breast) was > 100 µM. It also gave a GI50 (TK-10 renal) of 10.1 µM, a TGI (TK-10 renal) of 37.3 µM and a GI50 (U251 glioblastoma) of 5.17 µM. The TGI (U251 glioblastoma) was > 100 µM, the GI50 (UACC-257 melanoma) was > 100 µM and the TGI (UACC-257 melanoma) was > 100 µM. For the same compound, the GI50 (UACC-62 melanoma) was 2.04 µM, the TGI (UACC-62 melanoma) was 50.2 µM and the GI50 (UO-31 renal) was 10.6 µM. It also gave a TGI (UO-31 renal) of 24 µM.
